Results published in patent publication US20220064316A1, “TREATMENT OF CANCER USING HUMANIZED ANTI-BCMA CHIMERIC ANTIGEN RECEPTOR” (The Trustees of the University of Pennsylvania, priority 2014, published 2022).

Assays:
[1] = test system: CAR-expressing, transduced T cells; assay: Proliferation of CARTs co-cultured with Nalm-6 cells in presence of RAD001; type: cell-based; settings: low doses of RAD001, 4 days of co-culture with Nalm-6 cells
Description: CARTs were co-cultured with Nalm-6 cells in the presence of different concentrations of RAD001. The number of CAR-positive CD3-positive T cells (black) and total T cells (gray) was assessed after 4 days of co-culture.

[2] = test system: humanized CD19 CART cells; assay: In vivo proliferation of humanized CD19 CART cells with and without RAD001 dosing; settings: RAD001 0.003 mg/kg daily, with huCAR19
Description: FIGS. 46A and 46B show in vivo proliferation of humanized CD19 CART cells with and without RAD001 dosing. […] Circles denote PBS; squares denote huCTL019; triangles denote huCTL019 with 3 mg/kg RAD001; inverted triangles denote huCTL019 with 0.3 mg/kg RAD001; diamonds denote huCTL019 with 0.03 mg/kg RAD001; and circles denote huCTL019 with 0.003 mg/kg RAD001.

[3] = test system: huCART19 cells co-cultured with Nalm-6; assay: huCART19 proliferation in 4 day co-culture with Nalm-6 in presence of RAD001; type: cell-based, human
Description: A humanized, anti-human CD19 CAR (huCART19) lentiviral transfer vector was used to produce the genomic material packaged into VSVg pseudotyped lentiviral particles. The amino acid and nucleotide sequence of the humanized anti-human CD19 CAR (huCART19) is CAR 1, ID 104875 described in PCT publication, WO2014/153270, filed Mar. 15, 2014, and is designated SEQ ID NOs. 85 and 31 therein.
Lentiviral transfer vector DNA is mixed with the three packaging components VSVg env, gag/pol and rev in combination with lipofectamine reagent to transfect Lenti-X 293T cells. Medium is changed after 24h and 30h thereafter, the virus-containing media is collected, filtered and stored at −80° C. CARTs are generated by transduction of fresh or frozen naïve T cells obtained by negative magnetic selection of healthy donor blood or leukopak. […] The percentage of cells transduced (expressing the CARs on the cell surface) and the level of CAR expression (relative fluorescence intensity, Geo Mean) are determined by flow cytometric analysis between days 7 and 9. […]
To evaluate the functionality of CARTs, the T cells are thawed and counted, and viability is assessed by Cellometer. […]
For measuring the proliferation of CARTs, T cells are cultured with target cells at a ratio of 1:1. […] The number of T cells is assessed by flow cytometry using counting beads as reference.

NALM6-luc tumors = assay: NALM6-luc tumor growth under daily oral RAD001; type: in vivo, NSG mice; settings: daily oral dosing of RAD001 alone
Description: NALM6-luc cells: The NALM6 human acute lymphoblastic leukemia (ALL) cell line was developed from the peripheral blood of a patient with relapsed ALL. The cells were then tagged with firefly luciferase. These suspension cells grow in RPMI supplemented with 10% heat inactivated fetal bovine serum.
Mice: 6 week old NSG (NOD.Cg-Prkdc^scidIl2rg^tm1Wjl/SzJ) mice were received from the Jackson Laboratory (stock number 005557).
Tumor implantation: NALM6-luc cells were grown and expanded in vitro in RPMI supplemented with 10% heat inactivated fetal bovine serum. The cells were then transferred to a 15 ml conical tube and washed twice with cold sterile PBS. NALM6-luc cells were then counted and resuspended at a concentration of 10×10^6 cells per milliliter of PBS. The cells were placed on ice and immediately (within one hour) implanted in the mice. NALM6-luc cells were injected intravenously via the tail vein in a 100 µl volume, for a total of 1×10^6 cells per mouse.
(§1) RAD001 dosing: A concentrated micro-emulsion of 50 mg equal to 1 mg RAD001 was formulated and then resuspended in D5W (dextrose 5% in water) at the time of dosing. Mice were orally dosed daily (via oral gavage) with 200 μl of the desired doses of RAD001.

[4] = RAD001 PK analysis in blood of NALM6-luc tumor bearing mice; type: in vivo, NSG mice
Description: as §1
PK analysis: Mice were dosed daily with RAD001 starting 7 days post tumor implantation. Dosing groups were as follows: 0.3 mg/kg, 1 mg/kg, 3 mg/kg, and 10 mg/kg. Mice were bled on days 0 and 14 following the first and last dose of RAD001, at the following time points for PK analysis: 15 minutes, 30 minutes, 1 hour, 2 hours, 4 hours, 8 hours, 12 hours, and 24 hours.

huCAR19 CAR T cells = assay: huCAR19 CAR T cell expansion in vivo with RAD001 (FACS); design: species or system NSG mice; settings: lowest doses of RAD001, daily oral; more evident with CD4+ than CD8+ CAR T cells
Description: CAR T cell dosing: Mice were administered 5×10^6 CAR T cells 7 days after tumor implantation. Cells were partially thawed in a 37 degree Celsius water bath and then completely thawed by the addition of 1 ml of cold sterile PBS to the tube containing the cells. The thawed cells were transferred to a 15 ml falcon tube and adjusted to a final volume of 10 mls with PBS. The cells were washed twice at 1000 rpm for 10 minutes each time and then counted on a hemocytometer. T cells were then resuspended at a concentration of 50×10^6 CAR T cells per ml of cold PBS and kept on ice until the mice were dosed. The mice were injected intravenously via the tail vein with 100 μl of the CAR T cells for a dose of 5×10^6 CAR T cells per mouse. Eight mice per group were treated either with 100 μl of PBS alone (PBS), or humanized CD19 CAR T cells.
as §1
Based on these doses, huCAR19 CAR T cells were dosed with and without RAD001 to determine the proliferative ability of these cells. The highest dose used was 3 mg/kg based on the levels of RAD001 in the blood 24 hours after dosing. […] Mice were monitored via FACS for T cell expansion.

concentration at 24 h ([4]; NSG, mouse, whole blood, 24 hours after dosing, 0.3 mg/kg oral daily, day 0 and day 14, read-out: RAD001 concentrations in the blood): > 10 nM
stability in the blood ([4]; tumor bearing mice, FIGS. 45A, 45B): fairly stable
SMILES: CO[C@H]1C[C@@H]2CC[C@@H](C)[C@@](O)(O2)C(=O)C(=O)N2CCCC[C@H]2C(=O)O[C@H]([C@H](C)C[C@@H]2CC[C@@H](OCCO)[C@H](OC)C2)CC(=O)[C@H](C)/C=C(\C)[C@@H](O)[C@@H](OC)C(=O)[C@H](C)C[C@H](C)/C=C/C=C/C=C/1C [RAD001, (1R,9S,12S,15R,16E,18R,19R,21R,23 S,24E,26E,28E,30S,32S,35R)-1,18-dihydroxy-12-{(1R)-2-[(1S,3R,4R)-4-(2-hydroxyethoxy)-3-methoxycyclohexyl]-1-methylethyl}-19,30-dimethoxy-15,17,21,23,29,35-hexamethyl-11,36-dioxa-4-aza-tricyclo[30.3.1.04,9]hexatriaconta-16,24,26,28-tetraene-2,3,10,14,20-pentaone]
proliferation of CAR-expressing, transduced T cells [1]: enhanced
CAR T cell proliferation in vivo [2]: enhancement in CAR T cell proliferation
huCART19 proliferation versus no RAD001 ([3]; 0.0032 and 0.016 nM RAD001): higher than observed without the addition of RAD001
RAD001 concentration at which huCART19 cells expanded ([3]; 4 day co-culture with Nalm-6, 1:1, lesser extent at higher concentrations): less than 0.016 nM
growth of NALM6-luc tumors (NALM6-luc tumors): did not have an impact
proliferation of the CAR T cells in vivo (huCAR19 CAR T cells): enhanced proliferation
